From US8110681B2, “Compounds for the treatment of spinal muscular atrophy and other uses” (The United States of America as represented by the …, priority 2006, dated 2012)

Legend:
[1] = test system: luciferase reporter containing the UAG stop codon; test: Translational read-through luciferase reporter assay, UAG stop codon; type: cell-based; conditions: read-out: MaxFold Increase
Source text: This assay is described in detail in WO 01/44516 A2. This is a cell-based luciferase reporter assay designed to detect translational read-through via insertion of a translational stop codon within the luciferase coding sequence. In the presence of compounds that promote read-through of translational stop codons, active luciferase is produced and detected via chemiluminescence. We have shown that indoprofen analogs are active in two versions of this assay—one containing a UGA stop codon and one containing a UAG stop codon. The data in the table is from the luciferase reporter containing the UAG stop codon. This is the first stop codon downstream of the improper splice junction between exons 6 and 8 in the human SMN2 transcript.

[2] = test system: SMN2-linked luciferase-reporter gene construct; test: SMN splice reporter assay (SMN2-linked luciferase reporter, Example 10); type: cell-based; conditions: cervical carcinoma cell lines with SMN2-luciferase reporter
Summary of the method: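 Values are fold-increase in luciferase signal relative to baseline cells without compound. The cervical carcinoma line used holds a fusion of alternatively spliced SMN2 sequence and luciferase. Readable frame, and thus signal, arises only with exon 7-including splicing.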

[3] = test system: SMN protein; conditions: cited from earlier work
[4] = test system: SMA model mouse fetuses; conditions: administered in utero; cited from earlier work

CC(C(=O)O)c1ccc(N2Cc3ccccc3C2=O)cc1 (centres unmarked) [Indoprofen]
maximal fold induction [1]: 2.3
luciferase activity in SMN splice reporter assay [2]: increases luciferase activity
production of SMN from the endogenous SMN2 gene ([3]; SMA patient fibroblasts): increase in production of SMN
level of expression of SMN protein ([3]; cultured cells, Lunn et al. 2004): increases the level of expression of SMN protein
survival of SMA model mouse fetuses [4]: increase survival
